Data on five compounds can be found in patent publication US4576952A, “Pyrazolopyridine derivatives and their use as anti-inflammatory and/or anti-allergic agents” (Beecham Group p.l.c., priority 1984, dated 1986).

The test system of one experiment is cantharidin mouse ear. The experiment in a line: Mouse Cantharidin Screen (topical anti-inflammatory activity, mouse ear). To be noted: Mouse Cantharidin Data (24 h). The class given is in vivo. As for the experimental part: Compounds were tested for topical anti-inflammatory activity in a cantharidin mouse ear screen, modified from Swingle et al [Swingle, K. F., Reiter, M. J. and Schwartzmiller, D. H., Arch. Int. Pharmacodyn., (1981), 254, 168-176].
25 μg cantharidin (in 10 μl THF/MeOH) was applied to both ears. Compound, in the same solvent, was applied at the same time, to the left ear only. Ears were weighed 24 h after cantharidin application. Percentage inhibition of the acute inflammatory swelling refers to the increase in weight of left ears (cantharidin plus compound) compared with solvent-treated negative controls, as a proportion of the increase in weight of right ears (cantharidin alone) over similar controls.

For experiment [1], the system named is mouse sensitised to oxazolone. The experiment in a line: Mouse Oxazolone Screen (topical anti-inflammatory activity). The settings on record: ear, compound 1 h before oxazolone challenge, ear weights 24 h later, r^2 =0.96. In kind it is in vivo. As for the experimental part:
Compounds were tested for topical anti-inflammatory activity in a screen using the mouse sensitised to oxazolone, by a method modified from that of Dietrich and Hess [Dietrich, F. M., and Hess, R., Int. Arch. Allergy, (1970), 38, 246-259].
Mice were sensitised with oxazolone (2 mg in 20 μl ethanol) on a shaved area of the abdomen. Five days later, the animals received 10 μl THF/MeOH (1:1 v/v) on the right ear, and the test compound in the same solvent on the left ear. One hour later, the animals were challenged with 100 μg oxazolone in 10 μl acetone on each ear. Ear weights were measured 24 h later. Percentage inhibition of the inflammatory swelling refers to the increase in weight of left ears (oxazolone plus compound) compared with solvent-treated negative controls, as a proportion of the increase in weight of right ears (oxazolone alone) over similar controls.

The test system of another experiment is 5-Lipoxygenase. Briefly: RBL-1 5-Lipoxygenase Screen. To be noted: 20 μM; 10,000 g supernatant from RBL-1 cells, 29° C. The class given is biochemical. As for the experimental part:
5-Lipoxygenase enzyme was prepared as a 10,000 g supernatant from RBL-1 cells by the method of Jakschik [Jakschik, B. A., Sun, F. F., Lee, L. M. and Steinhoff, M. M., 1980, Biochem. Biophys. Res. Comm. 95, 103]. The 10,000 g supernatant was diluted with homogenization buffer to the equivalent of 1.5-2.5×10^7 cells ml^-1 and made 2 mM with respect to CaCl2. Aliquots of 0.5 ml were then dispensed into tubes, and incubated at 29° C. with 5 γl ethanol or compound in ethanol at the desired concentration for 2 min. Then [1-^14 C] arachidonic acid was added in buffer to give a final concentration of 6.3 μm and 0.2 μCi per incubation, and the reaction continued at 29° C. for 2 min. The reaction was terminated by adding 1 ml of acetone and cooling on ice, 0.5 ml of ice-cold saline and 10 μl of 2N formic acid were added, and the mixture was extracted with 2×2 ml of chloroform. The extract was stored under N2 at -20° C. until analysis by chromatography. Activity was measured as the percentage of total radioactivity found in 5-HETE and 5,12-diHETE, and inhibition calculated as the decrease in formation of the sum of these two species in compound-treated incubates relative to control incubates.

In another experiment the test system is mice. To be noted: in mice; J. Heterocycl. Chem. 1971, 8(6), 1035-7; cited from earlier work.

Each structure is given as a SMILES string.

In the case of `Cc1cc(Nc2ccc(C#N)cc2)c2[nH]ncc2n1` [Example 1, 7-(4-Cyanoanilino)-5-methyl-1H-pyrazolo[4,3-b]pyridine], the % Inhibition – broadly, the percentage by which the read-out fell short of the control – in the experiment with cantharidin mouse ear (300 μg/ear) was 29%.
As to `Cc1cc(Nc2ccc(O)cc2)c2[nH]ncc2n1` [Example 4, 7-(4-Hydroxyanilino)-5-methyl-1H-pyrazolo[4,3-b]pyridine], the “% Inhibition” value in the experiment on cantharidin mouse ear (200 μg/ear) is reported as 71%. Besides, the ED50 in experiment [1] is given as 240 μg/ear. Besides, the “inhibition (decrease in formation of 5-HETE and 5,12-diHETE)” value with 5-Lipoxygenase worked out at 66%.
On to `Cc1cc(Nc2cccc(O)c2)c2[nH]ncc2n1` [Example 5, 7-(3-Hydroxyanilino)-5-methyl-1H-pyrazolo[4.3-b]pyridine], for which the “% Inhibition” value in the experiment on cantharidin mouse ear (500 μg/ear) is on record as 49%.
As for `Cc1cc(Nc2cccc(O)c2)c2c(cnn2C)n1` [Example 8, 1,5-Dimethyl-7-(3-hydroxyanilino)-1H-pyrazolo[4,3-b]pyridine], the “% Inhibition” value with cantharidin mouse ear (278 μg/ear) stood at 31%.
For `CC(=O)N(C(C)=O)c1cc(C)nc2c(C)n[nH]c12` [compound wherein R is NAc2], the CNS antidepressant activity entry in the experiment with mice was “CNS antidepressant activity”.
